Data from patent publication US20240002379A1, “ASYMMETRIC CONJUGATE COMPOUNDS” (Pheon Therapeutics Ltd., priority 2016, published 2024).
“Also recorded” adds a separate entry of the source. Where two headings read alike, the source gives them in different places.

Experiments:
PC3 (prostate) cell line = assay: MTT cytotoxicity assay, PC3; assay type: cell-based; details: 72 h, read-out: Cytotoxicity PC3 (nM, 72 hour)
Protocol: (§1) Tumor cell lines were maintained in RPMI1640 medium supplemented with 10% heat-inactivated fetal bovine serum, 2 mM L-glutamine and 1 mM sodium pyruvate. 1800 cells per well were seeded in a volume of 180 μl in a 96-well flat bottom polystyrene plate. The cells were allowed to adhere overnight at 37° C. in a CO2 incubator. Ligands were initially formulated in DMSO, and stocks stored at −80° C. They were then further formulated at lox concentration in RPMI1640 medium. 20 ul of diluted samples were added into each treatment well. On each plate, blank wells with no cells, and untreated wells containing cells, were included. Plates were then cultured at 37° C. in a CO2 incubator for 72 hrs. Cytotoxicity was evaluated using a tetrazolium salt-based assay, the MTT assay. After 72 hours, the supernatant was removed from each well and 200 μl of a sterile filtered 500 μg/ml MTT solution in water added to each well. The plates were then incubated at 37° C. in a CO2 incubator for 4 hrs. The supernatant was then removed and the formazan crystals formed solubilized by adding 150 μl of DMSO to each well. The plate was then read on a plate reader at 540 nm, and percentage cell survival calculated as follows: ((mean absorbance treated wells at concentration x−mean absorbance blank wells)[…](mean absorbance untreated wells at concentration x−mean absorbance blank wells))×100. Data were plotted as concentration in nM vs. % cell survival in Microsoft Excel, and IC50 values (concentration where cell survival is reduced by a half) were determined from the graph.

SW48 cell line (gastric) = assay: MTT cytotoxicity assay, SW48; assay type: cell-based; details: Homo sapiens, read-out: Cytotoxicity SW48 (72 hrs)
Protocol: as §1

[1] = tested on: FaDu (head and neck cancer) cell line; assay: MTT cytotoxicity assay, FaDu; assay type: cell-based; details: Homo sapiens, 72 h
Protocol: as §1

[2] = tested on: LIM1215 cell line (gastric); assay: MTT cytotoxicity assay, LIM1215; assay type: cell-based; details: read-out: Cytotoxicity LIM1215 (72 hours)
Protocol: as §1

[3] = tested on: SW620 cell line (gastric); assay: MTT cytotoxicity assay, SW620; assay type: cell-based; details: Homo sapiens, read-out: Cytotoxicity SW620 (72 hours)
Protocol: as §1

[4] = tested on: three fluorescently labelled DNA sequences shown in FIG. 17; assay: FRET DNA melting, the three DNA sequences shown in FIG. 17 together; assay type: binding; details: different concentrations, all three sequences, vs control DNA
Text: Further FRET DNA melting studies were undertaken on a number of molecules using three fluorescently labelled sequences. The sequences (FIG. 17) were designed to provide additional evidence that the series can form inter- and intrastrand cross-links. Inosines were inserted in place of traditional DNA bases in some cases to limit the number of binding sites available for the compounds to interact with. The short duplexes used in this FRET study are relatively unstable in the duplex form with a melting temperature below 30° C. so that, in the absence of ligand, a large part of the melting occurs below the starting temperature of the experiment. […] Increasing concentrations of 13 cause a greater amount of the melting transition to appear at the higher temperature (i.e. a greater number of the DNA molecules are cross-linked). A greater effect for 5′-AIIAGAITTTI′-3′ can be observed at lower concentrations of 13.
Oligonucleotides were obtained from ATDbio (Southampton, UK) in lyophilised form. They were labelled with a fluorophore molecule (F=fluorescein) at the 5′-end and a quencher molecule (Q=dabcyl) at the 3′-end of the complementary strand. Each oligonucleotide was dissolved in distilled H2O to form stock solutions of 100 PM. Working solutions of 5 μM were prepared by diluting the stock solution with distilled H2O.
The following buffers were used: 250 mM phosphate buffer pH 7.4 (consisting of sodium dihydrogen phosphate and sodium phosphate diluted in distilled H2O) and 5 M sodium chloride buffer. A11 buffers and distilled H2O were filtered through a […] filter prior to use.
For the FRET experiments a stock solutions were prepared by dissolving compound (such as compound 13) in DMSO to give a concentration of 10 mM. From this stock solution, working solutions of the desired concentration were prepared by diluting the stock solution with distilled H2O.
The reaction mixture was comprised of 4 μL of 250 mM phosphate buffer (final concentration of 50 mM), 4 μL flourophor and 4 μL quencher molecule of the appropriate oligonucleotide for a final concentration of 0.2 PM, 4 μL 5 M sodium chloride (final concentration of 1 M NaCl), and 4 μL of distilled H2O. This mixture was heated in an Eppendorf tube at 90° C. for 1 min and slowly cooled down to room temperature. This process was carried out to anneal the single strands to double-stranded DNA. Following this, 4 μL of the ligand was added in the desired concentration and the mixture incubated overnight either at room temperature or 4° C. A control sample of DNA only was prepared by mixing 4 μL 250 mM phosphate buffer (final concentration of 50 mM) with 4 μL fluorophore-labelled and 4 μL quencher-labelled oligonucleotides (of the appropriate sequence) to give a final concentration of 0.2 PM, 4 μL 5 M sodium chloride (final concentration of 1 M NaCl) and 4 μL distilled H2O. This mixture was analysed without prior annealing.
Fluorescence melting profiles were measured using a Roche LightCycler using a total reaction volume of 20 μL. Initially, the samples were denatured by heating to 95° C. at a rate of 1° C. min^−1. The samples were then maintained at 95° C. for 5 min before annealing by cooling to 25° C. at 1° C. min^−1. The samples were then held at 25° C. for a further 5 min and finally melted by heating to 95° C. at 1° C. min^−1. Annealing steps and melting steps were all recorded and changes in fluorescence were measured at 520 nm.
Tm values were obtained from the first derivates of the melting profiles using the Roche LightCycler software.

[5] = tested on: linear double-stranded HexARev DNA fragment; assay: DNA cleavage assay, HexARev fragment; assay type: biochemical; details: ligand concentration 10 μM and 100 nM (FIG. 16)
Protocol: The ability of a further series of compounds 13, 42, 59, 99 and the PBD dimer Talirine to cross-link DNA was determined using an assay involving a linear double-stranded HexARev fragment (FIG. 15).
The ability of 13 and of a series of compounds to cleave double-stranded DNA was investigated using a modification of the previously established DNA footprinting assay (34). Following an overnight incubation of the ligand-DNA complexes, the mixture was mixed with strand separation buffer containing 10 mM EDTA, 10 mM NaOH, 0.1% bromophenol blue, 80% formamide and incubated at 100° C. for 3 min. The mixture was then immediately cooled on ice and run on an 8% denaturing gel. […] Using the GA marker, these additional bands were identified as cleavage products produced by 13 at certain A sites of the DNA fragment.
The preparation of the TyrT DNA fragment (FIG. 8) and HexARev DNA fragment (FIG. 15) have been previously described (34). Briefly, the sequence which had been cloned into the BamHI site of pUC18 was obtained by cutting with HindIII and EcoRI. Radiolabelled DNA fragments were prepared by filling in the 3′-end of the HindIII site with [α-^32P]dATP using Klenow DNA polymerase (exo-).
The radiolabelled DNA fragment was separated from the remainder of the plasmid DNA on a 6% non-denaturing polyacrylamide gel. The gel (20 cm long, 0.3 mm thick) was run at 400 V in 1×TBE running buffer for about 1-2 h, until the bromophenol blue had run most of the way down the gel. The glass plates were separated and the position of the labelled DNA fragment was established by short (1 min) exposure to an X-ray film. The relevant band was then cut from the gel and the radiolabelled DNA eluted by adding 300 μL 10 mM Tris-HCl, pH 7.5 containing 0.1 mM EDTA and gently agitating overnight at room temperature. The eluted DNA was finally precipitated with ethanol and re-suspended in a suitable volume of 10 mM Tris-HCl, pH 7.5 containing 0.1 mM EDTA buffer so as to give at least 10 counts per second/μL on a hand-held Geiger counter. With fresh plasmid and α-^32P-dATP this process typically generated about 150 μL of radiolabelled fragment DNA. The absolute concentration of the DNA is not important, and it is typically lower than 10 nM.
Compounds such as 13 were synthesised as described above and the PBD dimer Talirine was obtained from Aurum Pharmatech LLC. Stock solution was prepared by dissolving the ligands in DMSO to give a concentration of 10 mM. From this stock solution, working solutions of the desired concentration were prepared by diluting with 10 mM Tris-HCl, pH 7.5 containing 10 mM NaCl.
Radiolabelled DNA (1.5 μL) was mixed with 1.5 μL ligand solution of various concentrations (10 μM-10 nM) and incubated overnight at 37° C.
Labelled DNA (1.5 μL) was mixed with 20 μL sterile water and 5 μL of denaturing loading solution (80% formamide containing 10 mM EDTA, 10 mM NaOH, 0.01% bromophenol blue). The sample was then incubated at 100° C. for 20 min with the micro-centrifuge tube cap open to allow evaporation.
Loading solution (4.5 μL) was added to samples from Section 2.1. The digestion products were boiled for 3 min at 100° C. and quickly cooled on ice prior to electrophoresis. Separation was performed on an 8% denaturing polyacrylamide gel (40 cm long, 0.3 mm thick) at 1500V for about 2 h until the dye reached the bottom of the gel. […]

SW48 cell line = assay: MTT cytotoxicity assay, SW48; assay type: cell-based; details: MTT assay, 72 hour incubation
Protocol: as §1

SW620 cell line = assay: MTT cytotoxicity assay, SW620; assay type: cell-based; details: MTT assay, 72 hour incubation
Protocol: as §1

[6] = read-out: Cytotoxicity FaDu (nM, 72 hour)

Structure (SMILES) | IC50 (PC3 (prostate) cell line) | IC50 [1, 6] | IC50 ([2]; LIM1215, 72 h) | cleavage of HexARev DNA fragment [5] | further results
COc1cc2c(cc1OCCCCCC(=O)N1C[C@@H](CCl)c3c1cc(OC(=O)N1CCN(C)CC1)c1ccccc31)N=C[C@@H]1CCCCN1C2=O [Compound 57, (S)-1-(Chloromethyl)-3-(6-(((S)-2-methoxy-12-oxo-6a,7,8,9,10,12-hexahydrobenzo[e]pyrido[1,2-a][1,4]diazepin-3-yl)oxy)hexanoyl)-2,3-dihydro-1H-benzo[e]indol-5-yl 4-methylpiperazine-1-carboxylate] | 3 nM | > 10 nM | 0.41 nM | – | IC50 (SW48 cell line (gastric); SW48, 72 h): 0.042 nM; IC50 ([3]; SW-620, 72 h): 1.1 nM
COc1cc2c(cc1OCc1cccc(CC(=O)N3C[C@@H](CCl)c4c3cc(OC(=O)N3CCN(C)CC3)c3ccccc43)c1)N=C[C@@H]1CCCCN1C2=O [Compound 59, (S)-1-(Chloromethyl)-3-(2-(3-((((S)-2-methoxy-12-oxo-6a,7,8,9,10,12-hexahydrobenzo[e]pyrido[1,2-a][1,4]diazepin-3-yl)oxy)-methyl)phenyl)acetyl)-2,3-dihydro-1H-benzo[e]indol-5-yl 4-methyl-piperazine-1-carboxylate] | 900 nM | – | – | limited cleavage | effect on melting temperature / DNA stabilisation [4]: does not impact on the stabilisation temperature of the parent DNA; also recorded: does not increase in proportion to the concentration; IC50 ([1]; read-out: IC50 value in FaDu (prodrug form)): 4500 nM
COc1cc2c(cc1OCCCC(=O)N1C[C@@H](CCl)c3c1cc(OC(=O)N1CCN(C)CC1)c1ccccc31)N=C[C@@H]1Cc3ccccc3CN1C2=O [Compound 61, (S)-1-(Chloromethyl)-3-(4-(((S)-2-methoxy-14-oxo-6a,7,12,14-tetrahydrobenzo[5,6][1,4]diazepino[1,2-b]isoquinolin-3-yl)oxy)butanoyl)-2,3-dihydro-1H-benzo[e]indol-5-yl 4-methylpiperazine-1-carboxylate] | > 10 nM | > 10 nM | – | – | –
O=C(O)c1cc(OCc2ccccc2)c2ccccc2c1 [Compound 77, 4-(Benzyloxy)-2-naphthoic acid] | – | – | – | distinct cleavage patterns | –
COc1cc2c(cc1OCCCCCC(=O)N1C[C@@H](CCl)c3c1cc(O)c1ccccc31)N=C[C@@H]1CCCCN1C2=O [Compound 99, (S)-3-((6-((S)-1-(Chloromethyl)-5-hydroxy-1,2-dihydro-3H-benzo[e]indol-3-Y1)-6-oxohexyl)oxyl)-2-methoxy-7,8,9,10-tetrahydrobenzo-[e]pyrido[1,2-a][1,4]diazepin-12(6aH)-one] | – | – | – | cleave DNA | IC50 (SW48 cell line (gastric); SW48, MTT assay, 72 hour incubation): 0.035 nM; IC50 ([2]; LIM1215, MTT assay, 72 hour incubation): 0.039 nM; IC50 ([3]; SW-620, MTT assay, 72 hour incubation): 0.045 nM
COc1cc2c(cc1OCc1cccc(CC(=O)N3C[C@@H](CCl)c4c3cc(OC(=O)N3CCN(C)CC3)c3ccccc43)c1)NC(=O)[C@@H]1CCCCN1C2=O [Compound 140] | – | – | 18.1 nM | – | Cytotoxicity SW48 (72 hrs) (SW48 cell line): Not active; Cytotoxicity SW620 (72 hours) (SW620 cell line): Not active
